Our source for the EC50 and inhibition values is patent US10287267B2, “Isoquinolin-3-yl carboxamides and preparation and use thereof” (Samumed, LLC, priority 2016, dated 2019).

In test [1] the test system is Wnt pathway (Sp5-Luc reporter, TCF/LEF binding sites) in SW480 colon carcinoma cells. In words: Screening assay for Wnt activity: Sp5-Luc reporter gene assay.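 For all read-outs here: firefly luciferase luminescence read in stably transduced SW480 cells carrying the Sp5 promoter reporter with eight TCF/LEF sites, compounds given in 0.1% DMSO final.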 In kind it is cell-based, human. The settings on record: Homo sapiens; for EC50: Sp5-Luc reporter, SW480 cells, 36 to 48 hours; for inhibition at 10 µM: SW480, read-out: percent inhibition at 10 μM. On the technique in general: In a reporter assay the amount or activity of a reporter protein is the signal.
Protocol: The screening assay for Wnt activity is described as follows.
Following incubation, 15 μl of BriteLite Plus luminescence reagent (Perkin Elmer) was added to each well of the 384-well assay plates. The plates were placed on an orbital shaker for 2 min and then luminescence was quantified using the Envision (Perkin Elmer) plate reader.

Test [2] concerns SW480 colon carcinoma cells. Kind of test: Cell viability assay (CellTiter-Glo). In kind it is cell-based, human. The settings on record: Homo sapiens; for EC50: 96 h, SW480 cells, CellTiter-Glo, four days incubation; for inhibition at 10 µM: SW480, read-out: percent inhibition at 10 μM.
The test system of a further test is IL-6. In words: IL-6 inhibition in LPS-stimulated human peripheral blood mononuclear cells (HTRF).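 For all read-outs here: IL-6 detected by HTRF with an XL665- and Cryptate-labelled anti-IL-6 antibody pair, samples run in duplicate, EC50 obtained from a four-parameter Levenberg-Marquardt curve fit.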 The test is classed as cell-based. The settings on record: Homo sapiens, PBMC; for EC50: Table 9, huPBMCs, LPS 50 ng/mL, 22 hours, dose-response starting from 10 μM. On the technique in general: TR-FRET usually uses a lanthanide donor and a delayed reading to cut background.

Test [3] addresses recombinant DYRK1A kinase (Homo sapiens (Human), UniProt Q13627). Kind of test: DYRK1A kinase assay (Ser/Thr 18 peptide Z-lyte FRET).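 Note: Read-out is the coumarin to fluorescein emission ratio, referenced to unphosphorylated (0%) and phosphorylated (100%) Ser/Thr 18 peptide controls, values from dose-response curves by non-linear regression.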 In kind it is biochemical. The settings on record: 30 μM ATP, 1 h room temperature.
Test [4] deals with α-smooth muscle actin (αSMA) positive LL29 cells. Kind of test: Inhibition of fibrotic process: αSMA in TGF-β1 treated primary human fibroblasts from IPF patients.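 For all read-outs here: controls were TGF-β1 stimulated wells with DMSO vehicle (positive) and cells given DMSO alone (negative), cultured in F12 medium with 1% fetal bovine serum.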 The test is classed as cell-based. The settings on record: Homo sapiens, Fibroblast; for EC50: 96 h, Table 8, LL29 fibroblasts from IPF patients, TGF-β1 20 ng/mL, 4 days, dose-response 10 μM to 0.94 nM; for inhibition at 10 µM: read-out: percent value in parentheses beside EC50 >10 μM.

A further test concerns the target recombinant GSK3β kinase (Homo sapiens (Human), UniProt P49841). In words: GSK3β kinase assay (Ser/Thr 09 peptide Z-lyte FRET).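 Note: kinase activity read as coumarin to fluorescein emission ratio, 11-point threefold dilutions from 10 µM to 0.0003 µM in duplicate, unphosphorylated and phosphorylated peptide as 0% and 100% controls.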 The settings on record: 46 μM ATP, 1 h room temperature. The test is classed as biochemical.
Test [5] relates to Tau phosphorylation at Ser396 (pSer396). In words: Tau phosphorylation assay (pSer396 ELISA / western blot) in SH-SY5Y cells.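 Note: EC50 for reduction of Tau pSer396 in lysed cells, measured by colorimetric ELISA or chemiluminescent western blot, both using the same pSer396 antibody.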 The test is classed as cell-based, human. The settings on record: Homo sapiens, read-out: pSer396 Tau EC50. In general terms: In an ELISA, binding on a coated surface is turned into a signal by an enzyme label.
The mark [6] stands for this setting: SH-SY5Y cells, overnight (16-18 h) exposure.

Molecules are shown by their SMILES. Read-outs that look alike come from different tables or passages of the source.

Sequence of recombinant GSK3β kinase (P49841 whole entry): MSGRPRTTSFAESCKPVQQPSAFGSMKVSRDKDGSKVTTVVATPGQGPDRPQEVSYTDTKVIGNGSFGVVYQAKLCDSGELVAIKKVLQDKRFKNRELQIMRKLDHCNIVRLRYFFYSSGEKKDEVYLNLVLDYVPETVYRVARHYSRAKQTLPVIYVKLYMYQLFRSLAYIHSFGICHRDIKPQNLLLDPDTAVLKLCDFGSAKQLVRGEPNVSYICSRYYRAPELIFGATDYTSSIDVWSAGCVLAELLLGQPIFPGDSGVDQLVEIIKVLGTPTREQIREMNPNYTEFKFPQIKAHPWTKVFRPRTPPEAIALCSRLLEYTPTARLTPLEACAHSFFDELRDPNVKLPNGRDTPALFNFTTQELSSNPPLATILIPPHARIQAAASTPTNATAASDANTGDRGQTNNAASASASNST
Protocol for IL-6: After 22 hour incubation, a mixture of anti-IL6 XL665 and anti-IL-6 Cryptate diluted in reconstitution buffer (Catalog #62IL6PEC, Cisbio Inc., Bedford, Mass.) was added to each well. […] All samples were processed in duplicate. […] EC50 was determined using software generated by Dotmatics Limited (Windhill Bishops Stortford Herts, UK) using the Levenberg-Marquardt 4 parameter fitting procedure with finite different gradients.

In the case of `Cn1cc(-c2ccc3cnc(NC(=O)C4CCC(F)(F)CC4)cc3c2)nn1` [Compound 441, 4,4-Difluoro-N-(6-(1-methyl-1H-1,2,3-triazol-4-yl)isoquinolin-3-yl) cyclohexane-1-carboxamide], the 50% effective concentration (EC50) – broadly, the midpoint of the concentration-response curve – in test [1] was 1210 nM; in test [2], 5270 nM; with IL-6, 3350 nM; in test [3], 9.1 nM; in test [4] it was 57 nM; on recombinant GSK3β kinase, 5 nM. Further, in test [5] (setting [6]), the EC50 stood at 73 nM.
Consider `Cn1cc(-c2ccc3cnc(NC(=O)[C@H]4CC[C@H](N(C)C)CC4)cc3c2)nn1` [Compound 443, trans-4-(Dimethylamino)-N-(6-(1-methyl-1H-1,2,3-triazol-4-yl)isoquinolin-3-yl)cyclohexane-1-carboxamide], for which the EC50 was 397 nM in test [1]; 1680 nM in test [2]; 3290 nM in the test with IL-6; 2.2 nM in test [3]; 371 nM in test [4]; 13 nM on recombinant GSK3β kinase. Further, the EC50 in test [5] (setting [6]) was determined as 289 nM.
Consider `CN1CCN(C[C@H]2CC[C@H](C(=O)Nc3cc4cc(-c5cn(C)nn5)ccc4cn3)CC2)CC1` [Compound 448, trans-N-(6-(1-Methyl-1H-1,2,3-triazol-4-yl)isoquinolin-3-yl)-4-((4-methylpiperazin-1-yl)methyl)cyclohexane-1-carboxamide], for which the EC50 in test [1] came to 289 nM; in test [2], 626 nM; in the test on IL-6, 2180 nM; in test [3], 1.2 nM; in test [4], 59 nM; at recombinant GSK3β kinase, 11 nM. For the same compound, the EC50 in test [5] (setting [6]) was 106 nM.
Regarding `Cn1cc(-c2ccc3cnc(NC(=O)C4CCNCC4)cc3c2)nn1` [Compound 452, N-(6-(1-Methyl-1H-1,2,3-triazol-4-yl)isoquinolin-3-yl)piperidine-4-carboxamide], the half-maximal effective concentration (EC50) in test [1] amounted to 787 nM; in test [2], 1450 nM; in the test with IL-6, 2970 nM; in test [3], 0.4 nM; in test [4] it was 220 nM; at recombinant GSK3β kinase it was 7 nM. Further, the EC50 in test [5] (setting [6]) came out at 912 nM.
On to `Cn1cc(-c2ccc3cnc(NC(=O)C4CCN(CC5(C(F)(F)F)CC5)CC4)cc3c2)nn1` [Compound 470, N-(6-(1-Methyl-1H-1,2,3-triazol-4-yl)isoquinolin-3-yl)-1-((1-(trifluoromethyl)cyclopropyl)methyl)piperidine-4-carboxamide], for which the concentration giving a half-maximal response (EC50) in test [1] is 1180 nM; in test [2], 4190 nM; in the test on IL-6, 3550 nM; in test [3] it was 2.7 nM; in test [4], 387 nM; on recombinant GSK3β kinase, 4 nM. Also, in test [5] (setting [6]), the 50% effective concentration (EC50) was found to be 95 nM.
Regarding `Cn1cc(-c2ccc3cnc(NC(=O)C4CCN(CC5(C)COC5)CC4)cc3c2)nn1` [Compound 472, N-(6-(1-Methyl-1H-1,2,3-triazol-4-yl)isoquinolin-3-yl)-1-((3-methyloxetan-3-yl)methyl)piperidine-4-carboxamide], the half-maximal effective concentration (EC50) in test [1] was determined as 382 nM; in test [2], 5090 nM; with IL-6 it was 5410 nM; in test [3], 3.2 nM; in test [4] it was 243 nM; at recombinant GSK3β kinase, 8 nM. Also, the EC50 in test [5] (setting [6]) was determined as 200 nM.
In the case of `Cn1cc(-c2ccc3cnc(NC(=O)C4CCN(C(=O)CN5CCCC5)CC4)cc3c2)nn1` [Compound 475, N-(6-(1-Methyl-1H-1,2,3-triazol-4-yl)isoquinolin-3-yl)-1-(2-(pyrrolidin-1-yl)acetyl)piperidine-4-carboxamide], the EC50 in test [1] is 701 nM; in test [2], 1060 nM; in the test with IL-6 it was 2560 nM; in test [3], 3.2 nM; in test [4], 140 nM; on recombinant GSK3β kinase, 23 nM. For the same compound, the EC50 in test [5] (setting [6]) amounted to 1800 nM.
Regarding `CN1CCC(N2CCC(C(=O)Nc3cc4cc(-c5cn(C)nn5)ccc4cn3)CC2)CC1` [Compound 477, 1′-Methyl-N-(6-(1-methyl-1H-1,2,3-triazol-4-yl)isoquinolin-3-yl)-[1,4′-bipiperidine]-4-carboxamide], the EC50 in test [1] is 327 nM; in test [2], 719 nM; with IL-6 it was 2990 nM; in test [3], 1.1 nM; in test [4], 77 nM; on recombinant GSK3β kinase it was 6 nM. Besides, the EC50 in test [5] (setting [6]) was 188 nM.
As for `Cn1cc(-c2ccc3cnc(NC(=O)[C@@H]4CCCNC4)cc3c2)nn1` [Compound 481, (R)—N-(6-(1-Methyl-1H-1,2,3-triazol-4-yl)isoquinolin-3-yl)piperidine-3-carboxamide], the 50% effective concentration (EC50) turned out to be 1540 nM in test [1]; 1370 nM in test [2]; 1140 nM in the test with IL-6; 4.3 nM in test [3]; 1020 nM in test [4]; 4 nM at recombinant GSK3β kinase. Further, the EC50 in test [5] (setting [6]) was 662 nM.
Consider `CC(C)CN1CCC[C@@H](C(=O)Nc2cc3cc(-c4cn(C)nn4)ccc3cn2)C1` [Compound 483, (R)-1-Isobutyl-N-(6-(1-methyl-1H-1,2,3-triazol-4-yl)isoquinolin-3-yl) piperidine-3-carboxamide], for which the 50% effective concentration (EC50) was 1870 nM in test [1]; 7340 nM in test [2]; 9620 nM in the test with IL-6; 11.3 nM in test [3]; 315 nM in test [4]; 45 nM at recombinant GSK3β kinase. In addition, the EC50 in test [5] (setting [6]) stood at 611 nM.
`Cn1cc(-c2ccc3cnc(NC(=O)CN4CCCC4)cc3c2)nn1` [Compound 487, N-(6-(1-Methyl-1H-1,2,3-triazol-4-yl)isoquinolin-3-yl)-2-(pyrrolidin-1-yl) acetamide]: the concentration giving a half-maximal response (EC50) in test [1] was determined as 446 nM; in test [2], 2680 nM; in the test with IL-6, 3300 nM; in test [3] it was 7.7 nM; in test [4], 367 nM; at recombinant GSK3β kinase, 7 nM. Moreover, the 50% effective concentration (EC50) in test [5] (setting [6]) was 161 nM.
With `Cn1cc(-c2ccc3cnc(NC(=O)CN4C5CCC4CC5)cc3c2)nn1` [Compound 513, 2-(7-Azabicyclo[2.2.1]heptan-7-yl)-N-(6-(1-methyl-1H-1,2,3-triazol-4-yl)isoquinolin-3-yl)acetamide], the EC50 in test [1] was 6430 nM; in test [2] it was 9060 nM; in the test on IL-6, over 10000 nM; in test [3] it was 10.4 nM; in test [4] it was 1350 nM; at recombinant GSK3β kinase it was 43 nM. In test [5] (SH-SY5Y), the EC50 came to 864 nM. Also, the inhibition at 10 µM in the test on IL-6 (read-out: percent value in parentheses beside EC50 >10 μM) was 14.5%.
In the case of `Cn1cncc1-c1ccc2cnc(NC(=O)C(C)(C)F)cc2c1` [Compound 517, 2-Fluoro-2-methyl-N-(6-(1-methyl-1H-imidazol-5-yl)isoquinolin-3-yl) propanamide], the inhibition at 10 µM in test [1] amounted to 35.8%; in test [2], 27.5%; in test [4], 29.9%. Moreover, the concentration for a half-maximal effect (EC50) in test [1] was over 10000 nM; in test [2], over 10000 nM; with IL-6 it was 9070 nM; in test [3], 9.6 nM; in test [4], over 10000 nM; at recombinant GSK3β kinase, 470 nM. In addition, the concentration giving a half-maximal response (EC50) in test [5] (setting [6]) was found to be 1300 nM.
As for `Cn1cncc1-c1ccc2cnc(NC(=O)C3(F)CC3)cc2c1` [Compound 521, 1-Fluoro-N-(6-(1-methyl-1H-imidazol-5-yl)isoquinolin-3-yl)cyclopropane-1-carboxamide], the EC50 in test [1] was determined as 1800 nM; in test [2] it was 3630 nM; in the test with IL-6, 3250 nM; in test [3], 1.6 nM; in test [4], 1990 nM; on recombinant GSK3β kinase, 234 nM. Also, the half-maximal effective concentration (EC50) in test [5] (setting [6]) was 1100 nM.
For the compound `CN1CC2(CC(C(=O)Nc3cc4cc(-c5cncn5C)ccc4cn3)C2)C1` [Compound 523, 2-Methyl-N-(6-(1-methyl-1H-imidazol-5-yl)isoquinolin-3-yl)-2-azaspiro[3.3] heptane-6-carboxamide], the EC50 is 683 nM in test [1]; 447 nM in test [2]; 201 nM in the test with IL-6; 2.9 nM in test [3]; over 10000 nM in test [4]; 42 nM at recombinant GSK3β kinase. Besides, the EC50 in test [5] (setting [6]) was determined as 2200 nM. Moreover, the inhibition at 10 µM in test [4] turned out to be 32.6%.
Turning to `Cn1cncc1-c1ccc2cnc(NC(=O)C3(F)CCCCC3)cc2c1` [Compound 527, 1-Fluoro-N-(6-(1-methyl-1H-imidazol-5-yl)isoquinolin-3-yl)cyclohexane-1-carboxamide], the inhibition at 10 µM in test [1] came out at 23.5%; in test [2], 43.6%; in test [4], 37.3%. Besides, the concentration for a half-maximal effect (EC50) was over 10000 nM in test [1]; over 10000 nM in test [2]; 9980 nM in the test on IL-6; 9.8 nM in test [3]; over 10000 nM in test [4]; 415 nM at recombinant GSK3β kinase. In test [5] (setting [6]), the concentration for a half-maximal effect (EC50) was 2400 nM.
On to `CO[C@H]1CC[C@H](C(=O)Nc2cc3cc(-c4cncn4C)ccc3cn2)CC1` [Compound 528, trans-4-Methoxy-N-(6-(1-methyl-1H-imidazol-5-yl)isoquinolin-3-yl) cyclohexane-1-carboxamide], for which the EC50 in test [1] stood at 1150 nM; in test [2], 1420 nM; in the test with IL-6, 1780 nM; in test [3] it was 0.8 nM; in test [4], 103 nM; at recombinant GSK3β kinase, 96 nM. The concentration giving a half-maximal response (EC50) in test [5] (setting [6]) came to 323 nM.
